8 compounds from PubChem BioAssay (NCI) can be followed below.

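Test compounds were applied to cells in 96-well plates for 48 hours at 5 doses. GI50 is the concentration that inhibits growth by half. TGI: total growth inhibition.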

What all share (experiment): NCI tumour cell line growth inhibition, 48 h
Assay [1] concerns A498 renal.
The test system of assay [2] is BT-549 breast.
Assay [3] relates to DU-145 prostate.
The test system of assay [4] is HCC-2998 colon.
For assay [5], the system named is HOP-62 NSCLC.
The subject of assay [6] is HS 578T breast.
For assay [7], the system named is K-562 leukemia.
For assay [8], the system named is KM12 colon.
Assay [9] deals with M14 melanoma.
In assay [10] the test system is MCF7 breast.
The test system of assay [11] is MDA-MB-231 breast.
The subject of assay [12] is SF-268 CNS.
In assay [13] the test system is SF-295 CNS.
The test system of assay [14] is SK-MEL-5 melanoma.
The subject of assay [15] is SK-OV-3 ovarian.
For assay [16], the system named is SNB-19 CNS.
The subject of assay [17] is UO-31 renal.
The test system of assay [18] is EKVX NSCLC.
For assay [19], the system named is TK-10 renal.

Turning to `C=C(C)C(=O)O[C@H]1C/C(CO)=C/CCC(=C)C(OC(C)=O)[C@H]2OC(=O)C(=C)[C@H]12` (stereo partly drawn), the TGI in [1] was 43 µM; in [2], 12.1 µM; in assay [3], 37.4 µM; in [4], 32 µM; in assay [5] it was 73.8 µM; in [6] it was > 100 µM. In addition, the TGI in assay [7] was found to be 11.7 µM; in assay [8], 33.3 µM; in assay [9], 12.5 µM; in assay [10], 22.3 µM; in [11] it was 25.4 µM; in [12] it was 10.9 µM. The TGI in [13] is 91.4 µM; in assay [14], 28.3 µM; in [15], > 100 µM; in assay [16], > 100 µM; in assay [17] it was 17.7 µM.
`Cc1ccc2c3c1O[C@H]1c4[nH]c5ccccc5c4C[C@@]4(O)[C@@H](C2)N(C)CC[C@]314`: the TGI in assay [1] stood at 32.3 µM; in assay [2], 31.8 µM; in [3] it was 39 µM; in assay [6], 21.5 µM; in assay [7], 36.8 µM; in assay [8], 33.8 µM. The TGI was found to be 31.1 µM in assay [9]; 30 µM in assay [10]; 28.5 µM in assay [11]; 34.7 µM in assay [12]; 28.2 µM in [14]; 34.3 µM in assay [16]. This compound also yielded a TGI in assay [17] of 27.1 µM.
As for `Cc1c(NC(=S)NN)c(=O)n(-c2ccccc2)n1C`, the TGI in assay [1], in assay [2], in assay [3], in assay [18], in assay [5] and in assay [6] was > 100 µM each time. For the same compound, the TGI in assay [7], in assay [8], in assay [9], in [10], in assay [11] and in [12] was > 100 µM throughout. The TGI in assay [13], in assay [14], in assay [15], in assay [16], in [19] and in [17] was > 100 µM throughout.
Consider `ClCCCN(CCCCl)c1ccc(C=Nc2cccc(Cl)c2)cc1`, for which the GI50 in assay [2] is 71.2 µM. For the same compound, the TGI in assay [2] is > 100 µM; in assay [3] it was > 44.6 µM; in assay [18], > 100 µM; in assay [4], > 100 µM; in assay [5], > 75.1 µM; in assay [6] it was 71.8 µM. In addition, the TGI in assay [7] was > 83.9 µM; in assay [8] it was > 80.6 µM; in assay [9], > 76.3 µM; in [10], > 70.4 µM; in assay [11], > 73.7 µM; in [12], > 71.1 µM. Further, the TGI in assay [13] is > 82.4 µM; in assay [14], 36.7 µM; in [15], > 100 µM; in [16], > 100 µM; in assay [19], 26.6 µM; in assay [17], 88.3 µM.
As for `COc1cc(C2SC(N)=Nc3c2c(C)nn3C(=O)c2ccccc2O)cc(OC)c1OC` (stereo not drawn), the TGI in assay [1] was > 10 µM; in assay [2], > 10 µM; in assay [3] it was > 10 µM; in [18] it was > 10 µM; in [5], > 10 µM; in [6], 8.53 µM. In addition, the TGI in [7], in assay [8], in [9], in [10], in [11] and in assay [12] was > 10 µM in each case. Moreover, the TGI in assay [13], in assay [14], in assay [15], in assay [16], in [19] and in assay [17] was > 10 µM throughout.
Regarding `CC(C)(C)c1cc(CC2C(=O)c3ccccc3C2=O)cc(C(C)(C)C)c1O`, the TGI in [1] came out at 47.7 µM; in assay [2], 18.1 µM; in assay [3], 14.7 µM; in assay [18], 28 µM; in assay [5] it was 9.08 µM; in [6] it was 39.8 µM. Besides, the TGI was 13.1 µM in assay [7]; 19.1 µM in [8]; 11.6 µM in assay [9]; > 100 µM in assay [10]; 7.74 µM in assay [11]; 17.1 µM in assay [12]. Besides, the TGI in [13] is 12.4 µM; in [14] it was 11.1 µM; in [15], 7.71 µM; in [16] it was 12 µM; in [19], 23.7 µM; in [17] it was 10.5 µM.
As to `COc1ccc2nc3cc(Cl)ccc3c(NCCCN(Cc3cc(OC)c(OC)c(OC)c3)Cc3cc(OC)c(OC)c(OC)c3)c2c1`, the TGI in [2] came to 28 µM; in assay [3], 27.3 µM; in assay [18] it was 37.4 µM; in assay [4], 37.3 µM; in [5] it was 24.4 µM; in assay [6], 36.6 µM. Further, the TGI came to 3.77 µM in assay [7]; 28.3 µM in [8]; 3.45 µM in assay [9]; 30.4 µM in assay [10]; 10.6 µM in assay [11]; 41.7 µM in [12]. Moreover, the TGI was 12.1 µM in assay [13]; 2.61 µM in assay [14]; 32.8 µM in assay [15]; 35.8 µM in assay [16]; 44.1 µM in [19]; 26.1 µM in assay [17].
As to `CCOC(=O)C1(C(N)=O)C(=O)c2ccncc2C1=O` (stereo not drawn), the TGI in [1], in assay [2], in assay [3], in [18], in assay [4] and in assay [6] was > 100 µM in each case. Further, the TGI in assay [7], in [8], in assay [9], in assay [10], in [11] and in [12] was > 100 µM throughout. The TGI in [13], in [14], in assay [15], in assay [16] and in [17] was > 100 µM throughout.
